Assay [1] has as its system rat 5-HT2 receptor. The note with it: oocytes expressing the rat 5-HT2 receptor, cited from earlier work.
In assay [2] the test system is GABAA receptor. The following applies: cited from earlier work.
The test system of assay [3] is 5HT2. The following applies: in vivo evidence; cited from earlier work.
For assay [4], the system named is CRH release from cloned hypothalamic IVB cells. Put plainly: CRH release from clone IVB cells by radioimmunoassay. The class given is cell-based, rat. As to the method:
(§1) Embryonic day 19 Sprague Dawley rats were humanely dissected from pregnant rats and decapitated as described by Kasckow et al. (1997). The hypothalamus was removed and sliced. Hypothalamic slices were placed in phosphate buffered saline (PBS: NaCl, 137 mM; Na2HPO4, 21 mM; KH2PO4, 29 mM; KCl, 1.2 mM; pH 7.3). Cells were dissociated for 10-15 minutes in 0.25% trypsin containing 75 units/ml of DNAse in serum-free media (SFM) consisting of a mixture of Dulbecco's modified essential medium and Ham's F-12 (1:1, v/v from Gibco) supplemented with 14 mM glucose, 15 mM NaHCO3, 5 mM Hepes and 0.05 U/ml of penicillin streptomycin (Sigma). […]
(§2) Virus producer cell line γCRE/pZIPTEX was propagated at 1×10^6 cells per 100 mm tissue culture dish in the same media used for dissociated hypothalamic cultures (SFM+7.5% fetal bovine serum). […] One cell was selected on the basis of CRH peptide production which was monitored by radioimmunoassay (described below). […]
RIA for CRH was performed according to the protocol provided by IgG Corporation (Nashville, Tenn.) utilizing the reagents provided. […] Radioactivity of the pellet was measured using a Packard Multi-Prias 4 gamma counter (Packard Instruments, Downers, Ill.).
(§3) The quantitative data obtained were expressed as mean±standard error. […]

The test system of assay [5] is rats. The following applies: cited from earlier work.
The subject of assay [6] is CRH mRNA in cloned hypothalamic IVB cells. Put plainly: CRH mRNA detection by Northern hybridization in clone IVB cells. The class given is cell-based, rat. The note with it: 0 mM to 10 mM oleamide, 20 hours incubation, densitometry normalized to 28S, vs vehicle. How it is done:
as §1, §2
Total RNA was isolated using the PUREscript RNA isolation kit (Gentra Systems, Minneapolis, Minn.). […] A Foto/Eclipse Imager (Fotodyne Inc., Hartland, Wis.) interfaced with Power Macintosh 8100/110 using NIH ImageQuant analysis software was utilized for densitometric quantitation of the mRNA bands.
as §3

Assay [7] has as its system N-methyl-D-aspartate (NDMA) receptor. The note with it: cited from earlier work.
Assay [8] addresses T1, 5HT3 receptor (Homo sapiens, UniProt P46098).
T1 sequence (P46098 24-478): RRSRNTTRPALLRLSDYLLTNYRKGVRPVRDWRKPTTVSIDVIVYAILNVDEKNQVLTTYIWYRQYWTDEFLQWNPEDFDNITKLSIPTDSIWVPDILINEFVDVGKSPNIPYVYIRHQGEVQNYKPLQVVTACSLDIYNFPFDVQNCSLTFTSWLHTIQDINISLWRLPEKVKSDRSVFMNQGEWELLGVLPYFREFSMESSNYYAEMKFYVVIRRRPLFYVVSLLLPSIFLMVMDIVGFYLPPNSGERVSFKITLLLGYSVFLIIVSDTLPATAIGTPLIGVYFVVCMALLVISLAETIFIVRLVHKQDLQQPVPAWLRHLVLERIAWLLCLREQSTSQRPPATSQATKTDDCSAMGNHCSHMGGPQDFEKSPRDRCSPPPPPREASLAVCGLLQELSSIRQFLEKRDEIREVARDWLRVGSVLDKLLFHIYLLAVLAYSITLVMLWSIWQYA
The note with it: cited from earlier work.

The subject of assay [9] is rats. Put plainly: Elevated plus maze. The assay is classed as in vivo, rat. As to the method:
Methods for elevated plus maze testing were as follows: Based on Lister (1987), a 2 feet-4 arm radial maze consisting of 2 opposing enclosed arms (30 cm high×30 cm long×5 cm wide) and 2 opposing exposed arms (30 cm×5 cm) was constructed and was elevated on a pedestal 30 cm above the surface of a table and situated in the center of a dimly lit room. Testing was conducted in a quiet, dedicated room that was dimmed to provide 22 to 350 lux of illumination on the exposed arms of the maze and less than 1 lux within the enclosed arms. Animals were placed facing towards the enclosed arm in the center of the plus maze. […] (1992 , 1994). We assessed time in open arms and closed arms, total number of entries and rearings, based on Windle et al. (1997). All observers were blind to treatment to remove any investigator bias.

In assay [10] the test system is c-fos mRNA in brain areas. The note with it: IP, rodents, cited from earlier work.

The source of these data is US6359010B1, “Methods of treating anxiety and mood disorders with oleamide” (priority 1999, dated 2002).

Where two headings read alike, the source gives them in different places.

Turning to `CCCCCCCCCCCCCCCCCC(N)=O` [octadecanamide, reference compound], the “effect on 5-HT-elicited currents” value in assay [1] is “opposite those of oleamide”.

In the case of `CCCCCCCC/C=C\CCCCCCCC(N)=O` [oleamide, cis-9,10-octadecenoamide], the “effects on GABAA receptor” value in assay [2] was “no significant effects”. Further, the “5HT2 function in vivo” value in [3] is “indirectly potentiates”. Besides, the “immunoreactive CRH (CRH-LI) release” value in [4] (cloned IVB cells, 10 μM oleamide vs vehicle, n=9) is given as “significant increase”. For the same compound, in assay [4] (cloned hypothalamic IVB cells, concentration dependence), the “release of CRH” value is reported as “significant concentration-dependent increases”. The sleep latency entry in assay [5] (doses between 5 and 150 mg) is reported as “reduce sleep latency”. In assay [5] (intraperitoneal, doses between 5 and 50 mg), the “duration of induced sleep” value was 1 to 2.5 h. The “CRH mRNA (CRH synthesis)” value in [6] is recorded as “concentration-dependent manner”; in assay [6] (listed as Oleamide), “increased CRH mRNA”. Moreover, the “effects on NMDA receptor” value in assay [7] is listed as “no significant effects”. Further, in assay [8], the “effects on 5HT3 receptor” value was “no significant effects”. Further, in [1], the “effect on 5-HT-elicited currents” value is reported as “markedly potentiates”. Also, the “direct effects on 5-HT2 receptor” value in assay [1] (without 5-HT) is on record as “no significant direct effects”. For the same compound, in assay [9] (2 mg dose, rats approx. 250 g, n=10 per group), the exploratory behavior result is “overall increase in exploratory behavior”. Besides, the “total number of entries to both open and closed arm” value in [9] (2 mg dose, rats, relative to vehicle, P=0.0241) is “approximately doubled”. Besides, the “Rearings (mean)” value in assay [9] (5 min of testing, 2 mg dose, rats, control 8.2, P=0.002) turned out to be 17.2; in assay [9] (10 min of testing, 2 mg dose, rats, control 15, P=0.01) it was 24. The overall activity result in assay [9] (IP dosing) is “decreasing overall activity”. For the same compound, the “activation of brain areas (transient induction of c-fos mRNA)” value in [10] (1 mg/kg) was “not”; in [10] (5 or 10 mg/kg), “activation of multiple brain areas”.

On to `CCCCCCCC/C=C\CCCCCCCC(=O)O` [oleic acid, reference compound], for which the “effect on 5-HT-elicited currents” value in assay [1] is “does not have any effect”.
